In ChEMBL document CHEMBL1201862, “PubChem BioAssay data set” (2004):
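These data come from cells grown in 96-well plates and exposed to compound for 48 hours at five concentrations. At the GI50, growth is halved.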 The source made the active and inactive calls. No stated cut-off is given here; in the data, active = GI50 up to about 1.1 µM and inactive = higher. Where a SMILES comes first, the peptide text is derived from it. The star is where a group is joined. Boc = CC(C)(C)OC(=O)*; nBu = CCCC*

Tests used:
Assay in all cases: DTP human tumour cell line panel, 48 h
EKVX = tested on: EKVX
HL-60 = tested on: HL-60
IGROV-1 = tested on: IGROV-1
K562 = tested on: K562
KM12 = tested on: KM12
LOX IMVI = tested on: LOX IMVI
M14 = tested on: M14
MDA-MB-231 = tested on: MDA-MB-231
OVCAR-8 = tested on: OVCAR-8
SF-268 = tested on: SF-268
SK-MEL-28 = tested on: SK-MEL-28
SK-OV-3 = tested on: SK-OV-3
SNB-19 = tested on: SNB-19
T47D = tested on: T47D
SN12C = tested on: SN12C

Structure (SMILES) | GI50 (EKVX) | GI50 (HL-60) | GI50 (IGROV-1) | GI50 (K562) | GI50 (KM12) | GI50 (LOX IMVI) | GI50 (M14) | GI50 (MDA-MB-231) | GI50 (OVCAR-8) | GI50 (SF-268) | GI50 (SK-MEL-28) | GI50 (SK-OV-3) | GI50 (SNB-19) | GI50 (T47D) | GI50 (SN12C)
CN(NC(=O)c1ccc(Cl)cc1)C1=NCCCCN1 | > 100 µM (inactive) | > 100 µM (inactive) | > 100 µM (inactive) | > 100 µM (inactive) | > 100 µM (inactive) | > 100 µM (inactive) | > 100 µM (inactive) | > 100 µM (inactive) | > 100 µM (inactive) | > 100 µM (inactive) | > 100 µM (inactive) | > 100 µM (inactive) | > 100 µM (inactive) | > 100 µM (inactive) | –
COc1ccc(C2=NN(C(=O)c3cccnc3)C(O)(c3cc(F)c(Cl)cc3Cl)C2)cc1OC (stereo not given) | 19.6 µM (inactive) | 12.8 µM (inactive) | 8.11 µM (inactive) | 17.4 µM (inactive) | 19.1 µM (inactive) | 13.9 µM (inactive) | 15.8 µM (inactive) | 13.9 µM (inactive) | 14.5 µM (inactive) | 17.3 µM (inactive) | 19.5 µM (inactive) | 26.1 µM (inactive) | 29.9 µM (inactive) | 24 µM (inactive) | 15.3 µM (inactive)
COC1C(O)C(C)OC(O[C@@H]2C[C@H]3CC[C@@H]4[C@H](CC[C@]5(C)[C@@H](C6=CC(=O)OC6)CC[C@]45O)[C@@]3(C)[C@H](O)C2)C1O (stereo not given in full) | < 0.0474 µM (active) | < 0.04 µM (active) | 0.145 µM (active) | 0.0785 µM (active) | 0.296 µM (active) | < 0.0362 µM (active) | 0.0741 µM (active) | 0.313 µM (active) | 0.0472 µM (active) | < 0.0272 µM (active) | 0.216 µM (active) | < 0.0193 µM (active) | 0.264 µM (active) | 0.111 µM (active) | < 0.01 µM (active)
Cc1ccc(SCC(CF)OC(C)n2cnc3c(O)nc(N)nc32)cc1 (stereo not given) | – | 41.1 µM (inactive) | > 100 µM (inactive) | – | > 100 µM (inactive) | > 100 µM (inactive) | > 100 µM (inactive) | > 100 µM (inactive) | > 100 µM (inactive) | > 100 µM (inactive) | > 100 µM (inactive) | > 100 µM (inactive) | > 100 µM (inactive) | 49.1 µM (inactive) | > 100 µM (inactive)
Clc1ccc(C(Cc2ccccc2)c2c(Cl)nc(N3CCNCC3)nc2Cl)cc1 (stereo not given) | 17.9 µM (inactive) | 2.26 µM (inactive) | 11.9 µM (inactive) | 3.46 µM (inactive) | 7.89 µM (inactive) | 3.46 µM (inactive) | 16.2 µM (inactive) | 12.8 µM (inactive) | 12.1 µM (inactive) | – | 13.7 µM (inactive) | 17.7 µM (inactive) | 15.3 µM (inactive) | 12.8 µM (inactive) | 15.2 µM (inactive)
CCCCOc1ccc(CC(NC(=O)OC(C)(C)C)C(=O)NC(C)C(=O)NC(Cc2ccccc2)C(=O)NCC(N)=O)cc1 (stereo not given) (Boc-Y(nBu)AFG-NH2; configuration not given here) | – | 22 µM (inactive) | 31.3 µM (inactive) | > 100 µM (inactive) | > 100 µM (inactive) | 65 µM (inactive) | > 100 µM (inactive) | 82.4 µM (inactive) | > 100 µM (inactive) | > 100 µM (inactive) | 91 µM (inactive) | > 100 µM (inactive) | > 100 µM (inactive) | > 100 µM (inactive) | > 100 µM (inactive)
COC(=O)[C@@H](Nc1ccccc1)[C@@]1(C(=O)OC)SC12c1ccccc1-c1ccccc12 | 61.8 µM (inactive) | > 100 µM (inactive) | > 100 µM (inactive) | 56.4 µM (inactive) | > 100 µM (inactive) | 32.7 µM (inactive) | > 100 µM (inactive) | > 100 µM (inactive) | 63 µM (inactive) | > 100 µM (inactive) | > 100 µM (inactive) | – | > 100 µM (inactive) | 25.5 µM (inactive) | 44.6 µM (inactive)
CCN1CCCCCCCCCC(=N/O)/C(=N\O)C1 | > 100 µM (inactive) | > 100 µM (inactive) | > 100 µM (inactive) | > 100 µM (inactive) | > 100 µM (inactive) | > 100 µM (inactive) | > 100 µM (inactive) | > 100 µM (inactive) | > 100 µM (inactive) | > 100 µM (inactive) | > 100 µM (inactive) | – | > 100 µM (inactive) | > 100 µM (inactive) | > 100 µM (inactive)
O=C1CSC(c2ccccc2O)N1c1ccc2c(c1)Oc1c(Cl)c3c(c(Cl)c1=N2)Oc1cc(N2C(=O)CSC2c2ccccc2O)ccc1N=3 (stereo not given) | > 100 µM (inactive) | 0.664 µM (active) | 36.1 µM (inactive) | 13.2 µM (inactive) | 34.3 µM (inactive) | 42.1 µM (inactive) | 48.6 µM (inactive) | 28.9 µM (inactive) | 29.4 µM (inactive) | 32.7 µM (inactive) | 81.5 µM (inactive) | 25.8 µM (inactive) | – | 37.4 µM (inactive) | –
CC1(C)CCCOc2cccc(c2)OCCCC(C)(C)C1=O | 37.3 µM (inactive) | 18.1 µM (inactive) | 39.2 µM (inactive) | 14.8 µM (inactive) | 26 µM (inactive) | 20.7 µM (inactive) | 33.9 µM (inactive) | 44.1 µM (inactive) | – | 54.8 µM (inactive) | 38.5 µM (inactive) | 33 µM (inactive) | 80.7 µM (inactive) | 31.8 µM (inactive) | 45.3 µM (inactive)
CC(=O)C1C(=O)C(=O)N(c2ccc(Cl)c(Cl)c2)C1=O (stereo not given) | > 100 µM (inactive) | > 100 µM (inactive) | > 100 µM (inactive) | – | > 100 µM (inactive) | > 100 µM (inactive) | > 100 µM (inactive) | > 100 µM (inactive) | > 100 µM (inactive) | – | > 100 µM (inactive) | > 100 µM (inactive) | > 100 µM (inactive) | > 100 µM (inactive) | > 100 µM (inactive)
FC1=C2CCCCCC2SC1(F)F (stereo not given) | > 100 µM (inactive) | 12.7 µM (inactive) | > 100 µM (inactive) | 20.8 µM (inactive) | > 100 µM (inactive) | 15.7 µM (inactive) | 30.7 µM (inactive) | 78.9 µM (inactive) | 70.3 µM (inactive) | > 100 µM (inactive) | > 100 µM (inactive) | > 100 µM (inactive) | > 100 µM (inactive) | > 100 µM (inactive) | –
Cc1ccc(/C=C2\Cc3cccc(C)c3C2=O)c(C(=O)O)c1 | > 100 µM (inactive) | 85.7 µM (inactive) | 96.6 µM (inactive) | 99.8 µM (inactive) | 55.5 µM (inactive) | 64.4 µM (inactive) | > 100 µM (inactive) | 66.2 µM (inactive) | 97.7 µM (inactive) | > 100 µM (inactive) | 97.3 µM (inactive) | – | > 100 µM (inactive) | 42.7 µM (inactive) | > 100 µM (inactive)
OC1=C(c2ccccc2)C2=NCCN2c2ccccc21 | 62.5 µM (inactive) | 45.5 µM (inactive) | 40.9 µM (inactive) | 21.8 µM (inactive) | 31.8 µM (inactive) | 31.7 µM (inactive) | 57.8 µM (inactive) | > 100 µM (inactive) | 51.1 µM (inactive) | 45.9 µM (inactive) | 79.6 µM (inactive) | – | 20 µM (inactive) | > 100 µM (inactive) | > 100 µM (inactive)
